{"source": "patent US12419890B2", "about": "“Administration of sumo-activating enzyme inhibitor and checkpoint inhibitors” (Takeda Pharmaceutical Company Limited, priority 2019, dated 2025)", "key": {"[1]": {"test_system": "WEHI-3 syngeneic mouse myelomonocytic leukemia-derived subcutaneous tumor", "experiment": "WEHI-3 Study 5: mouse WEHI-3 syngeneic tumor model, individual tumor volume", "type": "in vivo", "conditions": "Compound I-263a 7.5 mg/kg IV BIW till Day 14", "experimental": "WEHI-3 Study 5: WEHI-3 is a mouse myelomonocytic leukemia cell line. WEHI-3 mouse syngeneic tumor model was generated by subcutaneous inoculation with 0.1×10^6 WEHI-3 cells (cell suspension) in 9 weeks old female BALB/c mice (SINO-British SIPPR/BK Lab Animal Ltd. Shanghai, China) in the flank. When the mean tumor volume reached approximately 30 mm^3, the animals were randomized into one vehicle control and five treatment groups (n=8/group). Mice were then dosed with 20% HPbCD or Compound I-263a or anti-mouse PD-1 antibody or anti-mouse CTLA-4 antibody over a 21-day period. Tumor growth and body weight were measured twice per week during the treatment and post-treatment periods, and mice were humanely euthanized once they had reached their humane endpoint.\nStudy 5: A 0.75 mg/mL stock solution of Compound I-263a was formulated weekly in 20% HPβCD and administered intravenously (IV) based on exact animal body weight on each day of treatment, using a dosing volume of 10 mL/kg body weight. Final doses received were 7.5 mg/kg. Dosing volume for Compound I-263a was 0.2 mL. Anti-mouse PD1 antibody (anti-mPD-1) (Bio X Cell, 10 Technology Drive, Suite 2B, West Lebanon, NH 03784) was formulated prior to each injection at 2.0 mg/mL in Phosphate-buffered saline (PBS) and administered intraperitoneally (IP) based on exact body weight on each day of treatment, using a dosing volume of 5 mL/kg resulting in a 10 mg/kg dose. Dosing volume for anti-mPD-1 was 0.1 mL. Anti-mouse CTLA-4 antibody (anti-mCTLA-4) (Bio X Cell, 10 Technology Drive, Suite 2B, West Lebanon, NH 03784) was formulated prior to each injection at 2.0 mg/mL in Phosphate-buffered saline (PBS) and administered intraperitoneally (IP) based on exact body weight on each day of treatment, using a dosing volume of 5 mL/kg resulting in a 10 mg/kg dose. […]\n(§1) Tumors were measured twice weekly using vernier calipers. Tumor volumes were calculated using standard equation: V=W^2×L/2, where V=volume, W=width, and L=length for the tumor. […] Tumor size and body weight were measured twice a week for the duration of the study. […]"}, "[2]": {"test_system": "CT26 syngeneic mouse colon fibroblast carcinoma-derived subcutaneous tumor", "experiment": "CT26 Study 2: mouse CT26 syngeneic tumor model, individual tumor volume", "type": "in vivo", "conditions": "Compound I-263a 7.5 mg/kg IV and anti-mPD-1 10 mg/kg IP, Day 0, 3, 7, 10, 14; 9 tumors/group", "experimental": "CT26 Study 2: CT26 is a mouse colon fibroblast carcinoma cell line. CT26 mouse syngeneic tumor model was generated by subcutaneous inoculation with 0.2×10^6 CT-26 cells (cell suspension) in 10 weeks old female BALB/c mice (Vital River Laboratory Animal Technology Co., Ltd., Beijing, China) in the flank. When the mean tumor volume reached approximately 40 mm^3, the animals were randomized into one vehicle control and three treatment groups (n=9/group). Mice were then dosed with 20% HPbCD or Compound I-263a or anti-mouse PD-1 antibody over a 14-day period. Tumor growth and body weight were measured twice per week during the treatment and post-treatment periods, and mice were humanely euthanized once they had reached their humane endpoint.\nStudy 2: A 0.75 mg/mL stock solution of Compound I-263a was formulated weekly in 20% HPβCD and administered intravenously (IV) based on exact animal body weight on each day of treatment, using a dosing volume of 10 mL/kg body weight. Final doses received were 7.5 mg/kg. Dosing volume for Compound I-263a was 0.2 mL. […]\nas §1"}}, "data": [{"compound": "Cc1sc(C(=O)c2cncnc2N[C@@H]2C[C@H](COS(N)(=O)=O)[C@@H](O)C2)cc1[C@@H]1NCCc2ccc(Cl)cc21", "note": "[Compound I-263a, [(1R,2S,4R)-4-{[5-({4-[(1R)-7-chloro-1,2,3,4-tetrahydroisoquinolin-1-yl]-5-methyl-2-thienyl}carbonyl)pyrimidin-4-yl]amino}-2-hydroxycyclopentyl]methyl sulfamate]", "values": [{"measurement": "tumor growth inhibition / antitumor activity relative to vehicle", "setting": "[1]; anti-mPD-1 10 mg/kg IP BIW till Day 10, anti-mCTLA-4 10 mg/kg IP Q4D till Day 8, 8 tumors/group", "value": "modest inhibition"}, {"measurement": "tumor growth delays", "setting": "[1]; delay to 11-14 days", "value": "one"}, {"measurement": "tumors with slight tumor growth delay", "setting": "[1]; delays to 7-11 days, of the 8 implanted tumors", "value": 6}, {"measurement": "tumor growth inhibition relative to vehicle-treated tumors", "setting": "[2]", "value": "did not show any tumor growth inhibition"}]}]}
